“Also recorded” adds a separate entry of the source.
How the values were obtained:
[1] = molecular target: T1, recombinant human P450 enzyme 1A1 (Homo sapiens, UniProt P04798); test: Formation of reactive metabolites (glutathione adduct) by CYP1A1 with human liver cytosol; type: in vitro ADME; conditions: human liver cytosol + recombinant CYP1A1, NADPH and GSH
T1 construct: host or cells: Bacterial membranes (bactosomes), inferred from the named control preparation
T1 sequence (P04798 1-512): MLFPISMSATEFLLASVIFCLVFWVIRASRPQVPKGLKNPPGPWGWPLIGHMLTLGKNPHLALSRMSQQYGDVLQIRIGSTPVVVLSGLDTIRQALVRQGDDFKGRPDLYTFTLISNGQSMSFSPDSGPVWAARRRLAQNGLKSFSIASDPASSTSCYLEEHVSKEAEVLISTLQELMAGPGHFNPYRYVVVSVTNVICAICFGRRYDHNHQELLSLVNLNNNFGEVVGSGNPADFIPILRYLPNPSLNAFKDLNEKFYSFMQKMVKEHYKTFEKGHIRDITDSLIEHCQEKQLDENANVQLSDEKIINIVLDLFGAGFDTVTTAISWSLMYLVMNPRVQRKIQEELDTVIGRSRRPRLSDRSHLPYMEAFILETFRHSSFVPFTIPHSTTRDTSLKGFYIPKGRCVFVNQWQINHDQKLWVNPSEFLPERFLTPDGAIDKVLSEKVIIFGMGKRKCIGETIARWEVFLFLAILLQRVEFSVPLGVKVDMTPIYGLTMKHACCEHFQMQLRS
Method: Investigations into the potential for test compound to form a reactive metabolite were performed using an adapted method detailed by De Lin et al. Briefly, test compound was pre-incubated (n=2; 50 μM substrate concentration) at 37° C. for 5 min with mixed-gender human liver cytosol (1 mg/mL total protein concentration) in 100 mM phosphate buffer (pH 7.4) with 5 mM MgCl2 in the presence of recombinant human P450 enzyme 1A1 (100 nM), in the presence and absence of 5 mM glutathione. At the end of the pre-incubation period, 2 mM NADPH was added to each sample and the mixture incubated at 37° C. for 60 min. Immediately following the addition of NADPH and after the 60 min incubation period, aliquots of each sample were mixed with MeCN (containing internal standard) to terminate the reaction and precipitate the proteins.
Samples were mixed, centrifuged and following appropriate dilution, supernatants were analysed by LC-MS utilising a high-resolution mass spectrometer to perform metabolite identification and characterisation analysis.

[2] = system: HUVEC (human umbilical venous endothelial cells); test: HUVEC Tube Formation assay; type: cell-based; conditions: 18 h incubation, read-out: Tube formation GI50
Method: HUVEC (human umbilical venous endothelial cells, 1.5×10^4/well, ATCC CRL-1730) are placed in an earlier prepared 96-well plate. Test substance and/or vehicle is then added to each well in a final concentration of 0.4% DMSO in growth medium under an atmosphere of 5% CO2 at 37° C. After an 18 h incubation period, morphology of the endothelial cell tubes, which resemble a capillary-like network, are evaluated by a confocal high-content imaging system. Disruption (anti-angiogenesis) of total tube length is measured from each photograph and determined relative to the vehicle control group. […] Compounds are screened at 30, 3, 0.3, 0.03 and 0.003 μM (or μg/mL) in triplicate.

Cc1ccc(C(=O)Nc2cn(C(C)C)cn2)cc1C#Cc1cccnc1 [Example 25, N-(1-isopropylimidazol-4-yl)-4-methyl-3-[2-(3-pyridyl)ethynyl]benzamide]
formation of direct glutathione adduct ([1]; 50 μM, 60 min): does not form a glutathione adduct; also recorded: no products of direct glutathione conjugation were observed
metabolites identified as products of oxidation and glutathione conjugation [1]: Two very minor metabolites
GI50 [2]: > 10 µM

From patent US20230014226A1, “NEW COMPOUNDS AND METHODS” (BenevolentAI Bio Limited, priority 2019, published 2023)
